# Laboratory results from patent publication US5200407A, “Azole derivatives and anti-ulcerative composition containing same” (Meiji Seika Kaburhiki Kaisha, priority 1989, dated 1993).
# Test system: ulceration
# Assay: Water-immersion, restraint stress ulcerogenic testing
# Assay type: in vivo, Wister male rats
# Conditions: Rattus norvegicus, Table 1, suspended in 0.5% CMC, one hour prior to stressing, water immersion restraint six hours, rats
# Procedure: 1. Water-immersion, restraint stress ulcerogenic testing
# Wister male rats (11-week age) fasted for 18 hours were placed in a restraint cage, which was in turn immersed to a depth of the pectoral region in water at 20° to 22° C. to leave the rats under stress for six hours. Then, the rats were drawn up from the water and put down by vertebral dislocation. Afterwards, the stomach was removed, infused with 50 ml of a 5% aqueous solution of formalin and was wholly immersed in the same solution for 30 minutes for fixation. The fixed sample was dissected along the curvatura ventriculi major, and the ulcerated regions were measured along their major length (in mm) by means of slide calipers. The total sum of the measurements per rat is a value of ulceration. The compounds under test, suspended in 0.5% carboxymethylcellulose (CMC), were administered to the rats at a single dose of 5 ml/kg body weight (corresponding to 30 mg/kg body weight of the compound) one hour prior to the stressing. To a control group, only 0.5% CMC was administrated at a dose of 5 ml/kg weight. The rate of depression of ulceration was calculated according to the following equation: [formula]
row,Compound,inhibition in vivo at 30 mg/kg
1,"CC1(C)CCCC(C)(C)N1CCSc1nc2ncccc2o1 [Example 47, 2-[(2-(2,2,6,6-tetramethylpiperidin-1-yl)ethyl)thio]oxazolo[4,5-b]pyridine]",99%
2,"CC1(C)CCCC(C)(C)N1CCSc1nc2cccnc2o1 [Example 48, 2-[(2-(2,2,6,6-tetramethylpiperidin-1-yl)ethyl)thio]oxazolo[5,4-b]pyridine]",99%
3,"CC(C)N(CCSc1nc2ncccc2o1)C(C)C [Example 51, 2-[(2-di-isopropylaminoethyl)thio]oxazolo[4,5-b]pyridine]",88%
4,"c1cnc2sc(SCCN3CCOCC3)nc2c1 [Example 65, 2-[(2-morpholinoethyl)thio]thiazolo[5,4-b]pyridine]",58%
5,"CN1CCCC1CCSc1nc2cccnc2s1 (stereo not shown) [Example 70, 2-[(2-(1-methylpyrrolidin-2-yl)ethyl)thio]thiazolo[5,4-b]pyridine]",42%
6,"CCCCOC(=O)C[S+]([O-])c1nc2cccnc2s1 (stereo not shown) [Example 79, 2-[(n-butoxycarbonylmethyl)sulfinyl]thiazolo[5,4-b]pyridine]",76%
7,"C/C=C/COC(=O)C[S+]([O-])c1nc2cccnc2s1 (stereo not shown) [Example 84, 2-[(crotyloxycarbonylmethyl)sulfinyl]thiazolo[5,4-b]pyridine]",75%
8,"C=CCOC(=O)C[S+]([O-])c1nc2cccnc2s1 (stereo not shown) [Example 89, 2-[(allyloxvcarbonylmethyl)sulfinyl]thiazolo[5,4-b]pyridine]",72%
9,"COC(=O)C[S+]([O-])c1nc2cccnc2s1 (stereo not shown) [Example 93, 2-[(methoxycarbonylmethyl)sulfinyl]thiazolo[5,4-b]pyridine]",73%
10,"Cn1nnnc1CCCC[S+]([O-])c1nc2cccnc2s1 (stereo not shown) [Example 100, 2-[(4-(1-methyltetrazol-5-y1)butyl)sulfinyl]thiazolo[5,4-b]pyridine]",95%
11,"CC(C)COC(=O)C[S+]([O-])c1nc2cccnc2s1 (stereo not shown) [Example 101, 2-[(isobutoxycarbonylmethyl)sulfinyl]thiazolo[5,4-b]pyridine]",75%
12,"C[S+]([O-])c1nc2cccnc2s1 (stereo not shown) [Example 103, 2-methylsulfinylthiazolo[5,4-b]pyridine]",84%
13,"CCOC(=O)C[S+]([O-])c1nc2ncccc2s1 (stereo not shown) [Example 104, 2-[(ethoxycarbonylmethyl)sulfinyl]thiazolo[4,5-b]pyridine]",68%
14,"CC(=O)OCC[S+]([O-])c1nc2cccnc2s1 (stereo not shown) [Example 110, 2-[(2-acetoxyethyl)sulfinyl]thiazolo[5,4-b]pyridine]",79%
15,"O=C(C[S+]([O-])c1nc2cccnc2s1)NC1CCCCC1 (stereo not shown) [Example 117, 2-[(N-cyclohexylcarbamoylmethyl)sulfinyl]thiazolo[5,4-b]pyridine]",77%
16,"Cn1nnnc1C[S+]([O-])c1nc2cccnc2s1 (stereo not shown) [Example 120, 2-[((1-methyltetrazol-5-yl)methyl)sulfinyl]thiazolo[5,4-b]pyridine]",86%
17,CCOCC[S+]([O-])c1nc2cccnc2s1 (stereo not shown) [Example 121],67%
18,CCOCC[S+]([O-])c1nc2cc(Cl)cnc2s1 (stereo not shown) [Example 122],13%
19,"CCOCC[S+]([O-])c1nc2cnccc2s1 (stereo not shown) [Example 123, 2-[(2-ethoxymethyl)sulfinyl]thiazolo[4,5-c]pyridine]",15%
20,CCOCC[S+]([O-])c1nc2cccnc2[nH]1 (stereo not shown) [Example 124],25%
21,"[O-][S+](CCc1ccccn1)c1nc2cccnc2s1 (stereo not shown) [Example 125, 2-[2(pyridin-2-yl)-ethylsulfinyl]thiazolo[4,5-]pyridine]",44%
22,"O=C1NCC(C[S+]([O-])c2nc3cccnc3s2)O1 (stereo not shown) [Example 126, 2-[(2-oxazolidion-5-yl)methylsulfinyl]thiazolo[5,4-b]pyridine]",60%

row,Compound,inhibition in vivo at 30 mg/kg
1,"CC(C)=CC[S+]([O-])c1nc2cccnc2s1 (stereo not shown) [Example 127, 2-[(3-methyl-2-butenyl)sulfinyl]thiazolo[5,4-b]pyridine]",0%
2,"CCOC(=O)C[S+]([O-])c1nc2cccnc2s1 (stereo not shown) [Example 128, 2-[(ethoxycarbonylmethyl)sulfinyl]thiazolo[5,4-b]pyridine]",91%
3,"CC1(C)CCCC(C)(C)N1CC[S+]([O-])c1nc2cccnc2s1 (stereo not shown) [Example 129, 2-[{2-(2,2,6,6-tetramethylpiperidin-1-yl)ethyl)sulfinyl]thiazolo[5,4-b]pyridine]",99%
4,CC(C)N(CC[S+]([O-])c1nc2cnccc2s1)C(C)C (stereo not shown) [Example 130],76%
5,CC(C)N(CC[S+]([O-])c1nc2ncc(C(F)(F)F)cc2s1)C(C)C (stereo not shown) [Example 131],71%
6,CC1(C)CCCC(C)(C)N1CC[S+]([O-])c1nc2ncc(C(F)(F)F)cc2s1 (stereo not shown) [Example 133],98%
7,"NC(=O)C[S+]([O-])c1nc2cccnc2s1 (stereo not shown) [Example 135, 2-[(carbamoylmethyl)sulfinyl]thiazolo[5,4-b]pyridine]",86%
8,CC(C)N(CC[S+]([O-])c1nc2ncccc2s1)C(C)C (stereo not shown) [Example 136],94%
9,[O-][S+](CCN1CCOCC1)c1nc2cccnc2s1 (stereo not shown) [Example 138],68%
10,O=S(=O)(CCN1CCOCC1)c1nc2cccnc2s1 [Example 139],47%
11,[O-][S+](CCN1CCOCC1)c1nc2cnccc2s1 (stereo not shown) [Example 140],58%
12,CCN(CC)CC[S+]([O-])c1nc2cccnc2s1 (stereo not shown) [Example 141],41%
13,[O-][S+](CCN1CCOCC1)c1nc2cc(Cl)cnc2s1 (stereo not shown) [Example 142],13%
14,"[O-][S+](CCN1CCOCC1)c1nc2ncccc2[nH]1 (stereo not shown) [Example 143, 2-[(2-morpholinoethyl)sulfinyl]imidazo[4,5-b]pyridine]",54%
15,"CN1CCCC1CC[S+]([O-])c1nc2cccnc2s1 (stereo not shown) [Example 144, 2-[(2-(1-methylpyrrolidin-2-y1)ethyl)sulfinyl]thiazolo[5,4-b]pyridine]",85%
16,"CN1CCCC1CCS(=O)(=O)c1nc2cccnc2s1 (stereo not shown) [Example 145, 2-[(2-(1-methylpyrrolidin-2-yl)ethyl)sulfonyl]thiazolo[5,4-b]pyridine]",68%
17,"CN1CCCC(C[S+]([O-])c2nc3cccnc3s2)C1 (stereo not shown) [Example 147, 2-[(1-methylpiperidin-3-yl)methylsulfinyl]thiazolo[5,4-b]pyridine]",64%
18,"CN1CCC([S+]([O-])c2nc3cccnc3s2)CC1 (stereo not shown) [Example 148, 2-[(1-methylpiperidin-4-yl)sulfinyl]thiazolo[5,4-b]pyridine]",78%
19,"CC(C)N(CC[S+]([O-])c1nc2cccnc2s1)C(C)C (stereo not shown) [Example 149, 2-[(2-di-isopropylaminoethvl)sulfinyl]thiazolo[5,4-b]pyridine]",99%
20,"CC(C)N(CCS(=O)(=O)c1nc2cccnc2s1)C(C)C [Example 150, 2-[(2-di-isooropylaminoethyl)sulfonyl]thiazolo[5,4-b]pyridine]",61%
21,"CN1CCN(CCC[S+]([O-])c2nc3cccnc3s2)CC1 (stereo not shown) [Example 151, 2-[(3-(1-methylpiperazin-4-yl)propyl)sulfinyl]thiazolo[5,4-b]pyridine]",39%

# Same assay, conditions: Table 1; 30 mg/kg, suspended in 0.5% CMC, one hour prior to stressing; water immersion restraint six hours; rats
row,Compound,% Ulceration Inhibition
1,"2-[(2-ureidoethyl)sulfinyl]thiazolo[5,4-b]pyridine [Example 146]",19%

# Test system: ulceration
# Assay: Ethanol-induced ulceration
# Assay type: in vivo, Donryu masculine rats
# Conditions: 30 mg/kg oral, in 0.5% CMC, one hour prior to 100% ethanol; control nearly 100% erosion; rats
# Procedure: 2. Ethanol-induced ulceration
# Five (5) ml/kg of 100% ethanol was orally administrated to Donryu masculine rats fasted for 48 hours and dehydrated for 24 hours. One hour later, the rats were put down in similar manners as mentioned above test to remove and treat the stomach. The compounds under test, suspended in 0.5% CMC, were orally administered to the rats at a dose of 5 ml/kg body weight (corresponding to 30 mg/kg body weight of that compound) one hour prior to the administration of ethanol.
row,Compound,depression of erosion
1,"CCCCOC(=O)C[S+]([O-])c1nc2cccnc2s1 (stereo not shown) [Example 79, 2-[(n-butoxycarbonylmethyl)sulfinyl]thiazolo[5,4-b]pyridine]",98%

# Same assay, conditions: Table 2; 30 mg/kg oral, in 0.5% CMC, one hour prior to 100% ethanol; rats
row,Compound,% Ulceration Inhibition
1,"CCCCOC(=O)C[S+]([O-])c1nc2cccnc2s1 (stereo not shown) [Example 79, 2-[(n-butoxycarbonylmethyl)sulfinyl]thiazolo[5,4-b]pyridine]",98%
2,"CCOC(=O)C[S+]([O-])c1nc2cccnc2s1 (stereo not shown) [Example 128, 2-[(ethoxycarbonylmethyl)sulfinyl]thiazolo[5,4-b]pyridine]",99%
3,[O-][S+](CCN1CCOCC1)c1nc2cccnc2s1 (stereo not shown) [Example 138],97%
4,"CC(C)N(CC[S+]([O-])c1nc2cccnc2s1)C(C)C (stereo not shown) [Example 149, 2-[(2-di-isopropylaminoethvl)sulfinyl]thiazolo[5,4-b]pyridine]",94%

# Test system: not listed separately
# Assay: Toxicity (LD50)
# Conditions: mouse, in vivo; mice, oral
# Description: The compounds of the present invention are of low toxicity, as appreciated from Example Compound Nos. 79, 104 and 133 having up to 1 g/kg of LD50 value (mice, by an oral).
row,Compound,LD50
1,"CCCCOC(=O)C[S+]([O-])c1nc2cccnc2s1 (stereo not shown) [Example 79, 2-[(n-butoxycarbonylmethyl)sulfinyl]thiazolo[5,4-b]pyridine]",≥ 1000 mg/kg
2,"CCOC(=O)C[S+]([O-])c1nc2ncccc2s1 (stereo not shown) [Example 104, 2-[(ethoxycarbonylmethyl)sulfinyl]thiazolo[4,5-b]pyridine]",≥ 1000 mg/kg
3,CC1(C)CCCC(C)(C)N1CC[S+]([O-])c1nc2ncc(C(F)(F)F)cc2s1 (stereo not shown) [Example 133],≥ 1000 mg/kg
